From US20110086759A1, “CHEMICAL COMPOUNDS” (SYNGENTA CROP PROTECTION, INC., priority 2007, published 2011) come the findings set out here.

Format in all cases: in vivo
Experiment [1] has as its system Alopecurus myosuroides (ALOMY). Briefly: Pre-emergence biological efficacy, glasshouse pot test. As to conditions: 312 h, pre-emergence, 1,000 g/ha, evaluated after 13 days (100=total damage; 0=no damage), read-out: Percentage damage ALOMY. Put shortly:
(§1)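 Scores on a 0–100 damage scale were taken 13 days after spraying. Application rate 1000 or 250 g/ha, one day after sowing, in acetone/water-based aqueous spray containing 0.5% Tween 20.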

The subject of experiment [2] is Amaranthus retoflexus (AMARE). Described as above. The conditions noted are these: Amaranthus retroflexus, 312 h; pre-emergence, 1,000 g/ha, evaluated after 13 days (100=total damage; 0=no damage); read-out: Percentage damage AMARE. In short, it runs like this: as §1
Experiment [3] deals with Echinochloa crus-galli (ECHCG). The experiment is described as above. As to conditions: 312 h, pre-emergence, 1,000 g/ha, evaluated after 13 days (100=total damage; 0=no damage), read-out: Percentage damage ECHCG. Put shortly:
as §1

Experiment [4] concerns Ipomea hederaceae (IPOHE). The experiment is described as above. As to conditions: Ipomoea hederacea, 312 h; pre-emergence, 1,000 g/ha, evaluated after 13 days (100=total damage; 0=no damage); read-out: Percentage damage IPOHE. Put shortly: as §1
The subject of experiment [5] is Setaria faberi (SETFA). The description is as above. As to conditions: 312 h, pre-emergence, 1,000 g/ha, evaluated after 13 days (100=total damage; 0=no damage), read-out: Percentage damage SETFA. Put shortly: as §1
The subject of experiment [6] is Solanum nigrum (SOLNI). The experiment is described as above. The conditions noted are these: 312 h, pre-emergence, 1,000 g/ha, evaluated after 13 days (100=total damage; 0=no damage), read-out: Percentage damage SOLNI. Put shortly:
as §1

Experiment [7] concerns Alopecurus myosuroides (ALOMY). Kind of experiment: Post-emergence biological efficacy, glasshouse pot test. The conditions noted are these: 312 h, post-emergence, 1,000 g/ha, evaluated after 13 days (100=total damage; 0=no damage), read-out: Percentage damage caused to weed species, ALOMY. Put shortly:
(§2)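 Scored 13 days after spraying on a 0 (no damage) to 100 (total damage) scale. Treatment was a post-emergence spray at 1000 or 250 g/ha, from acetone/water 50:50 plus 0.5% Tween 20, onto 8-day-old plants in soil pots. Growth at 24/16° C, 14 h photoperiod, 65% humidity, watered twice daily.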

For experiment [8], the system named is Amaranthus retoflexus (AMARE). Described as above. The conditions noted are these: Amaranthus retroflexus, 312 h; post-emergence, 1,000 g/ha, evaluated after 13 days (100=total damage; 0=no damage); read-out: Percentage damage caused to weed species, AMARE. Put shortly:
as §2

Experiment [9] has as its system Echinochloa crus-galli (ECHCG). The description is as above. The conditions noted are these: 312 h, post-emergence, 1,000 g/ha, evaluated after 13 days (100=total damage; 0=no damage), read-out: Percentage damage caused to weed species, ECHCG. In short, it runs like this: as §2
The subject of experiment [10] is Ipomea hederaceae (IPOHE). The experiment is described as above. As to conditions: Ipomoea hederacea, 312 h; post-emergence, 1,000 g/ha, evaluated after 13 days (100=total damage; 0=no damage); read-out: Percentage damage caused to weed species, IPOHE. In short, it runs like this:
as §2

Experiment [11] concerns Setaria faberi (SETFA). The description is as above. As to conditions: 312 h, post-emergence, 1,000 g/ha, evaluated after 13 days (100=total damage; 0=no damage), read-out: Percentage damage caused to weed species, SETFA. In short, it runs like this: as §2
Experiment [12] concerns Solanum nigrum (SOLNI). The experiment is described as above. As to conditions: 312 h, post-emergence, 1,000 g/ha, evaluated after 13 days (100=total damage; 0=no damage), read-out: Percentage damage caused to weed species, SOLNI. Put shortly: as §2

Regarding `COC(=O)c1nc(C2CC2)nc(NC2(/C=C/c3ccc(F)cc3)CC2)c1Cl` [Compound 4-20, 5-Chloro-2-cyclopropyl-4-{1-[2-(4-fluorophenyl)-ethenyl]-cyclo-propylamino}-6-methoxycarbonyl-pyrimidine], the pest or weed control at 1000 g/ha in experiment [1] stood at 0%; in experiment [2], 50%; in [3], 0%; in experiment [4] it was 50%; with Setaria faberi (SETFA) [5], 0%; with Solanum nigrum (SOLNI) [6] it was 20%. The pest or weed control at 1000 g/ha was 20% in experiment [7]; 100% in experiment [8]; 50% in experiment [9]; 100% in experiment [10]; 70% with Setaria faberi (SETFA) [11]; 80% in the experiment on Solanum nigrum (SOLNI) [12].

With `COC(=O)c1nc(C2CC2)nc(NC2(/C=C/c3ccc(Cl)cc3)CC2)c1Cl` [Compound 4-21, 5-Chloro-4-{1-[2-(4-chlorophenyl)-ethenyl]-cyclopropylamino}-2-cyclopropyl-6-methoxycarbonyl-pyrimidine], the pest or weed control at 1000 g/ha in experiment [1] is 0%; in [2] it was 20%; in experiment [3], 0%; in [4] it was 70%; with Setaria faberi (SETFA) [5], 0%; in the experiment on Solanum nigrum (SOLNI) [6] it was 50%. Besides, the pest or weed control at 1000 g/ha was 20% in [7]; 100% in experiment [8]; 50% in experiment [9]; 80% in experiment [10]; 60% in the experiment with Setaria faberi (SETFA) [11]; 80% with Solanum nigrum (SOLNI) [12].

Take `COC(=O)c1nc(C2CC2)nc(NC2(/C=C/c3cc(C(F)(F)F)cc(C(F)(F)F)c3)CC2)c1Cl` [Compound 4-22, 4-{1-[2-(3,5-Bis-trifluoromethylphen-yl)-ethenyl]-cyclopropylamino}-5-chloro-2-cyclopropyl-6-methoxycarbonyl-pyrimidine]: the pest or weed control at 1000 g/ha turned out to be 20% in experiment [1]; 70% in experiment [2]; 20% in experiment [3]; 80% in [4]; 10% with Setaria faberi (SETFA) [5]; 20% in the experiment with Solanum nigrum (SOLNI) [6]. Also, the pest or weed control at 1000 g/ha turned out to be 30% in experiment [7]; 100% in experiment [8]; 40% in experiment [9]; 100% in [10]; 80% with Setaria faberi (SETFA) [11]; 100% in the experiment on Solanum nigrum (SOLNI) [12].

Turning to `COC(=O)c1nc(C2CC2)nc(NC2(/C=C/c3cccs3)CC2)c1Cl` [Compound 4-23, 5-Chloro-2-cyclopropyl-6-methoxycarbonyl-4-[1-(2-thiophen-2-ylethenyl)-cyclopropylamino]-pyrimidine], the pest or weed control at 1000 g/ha in experiment [1] was found to be 10%; in experiment [2] it was 70%; in experiment [3], 0%; in [4] it was 70%; with Setaria faberi (SETFA) [5] it was 0%; in the experiment on Solanum nigrum (SOLNI) [6], 60%. Further, the pest or weed control at 1000 g/ha in experiment [7] stood at 20%; in [8], 100%; in experiment [9], 60%; in [10], 100%; in the experiment on Setaria faberi (SETFA) [11], 70%; with Solanum nigrum (SOLNI) [12], 80%.

For the compound `COC(=O)c1nc(C2CC2)nc(NC2(/C=C/c3ccccc3Cl)CC2)c1Cl` [Compound 4-24, 5-Chloro-4-{1-[2-(2-chlorophenyl)-ethenyl]-cyclopropylamino}-2-cyclopropyl-6-methoxycarbonyl-pyrimidine], the pest or weed control at 1000 g/ha in [1] is 10%; in experiment [2], 100%; in [3], 0%; in experiment [4] it was 40%; in the experiment with Setaria faberi (SETFA) [5], 0%; with Solanum nigrum (SOLNI) [6], 90%. Besides, the pest or weed control at 1000 g/ha in experiment [7] is 10%; in [8], 100%; in [9] it was 30%; in experiment [10] it was 100%; in the experiment with Setaria faberi (SETFA) [11], 60%; in the experiment on Solanum nigrum (SOLNI) [12], 80%.

As to `COC(=O)c1nc(C2CC2)nc(NC2(/C=C/c3ccc(C)cc3)CC2)c1Cl` [Compound 4-25, 5-Chloro-2-cyclopropyl-6-methoxycarbonyl-4-{1-[2-(4-methylphenyl)-ethenyl]-cyclopropylamino}-pyrimidine], the pest or weed control at 1000 g/ha in experiment [1] was found to be 10%; in [2], 100%; in experiment [3] it was 10%; in [4] it was 30%; in the experiment on Setaria faberi (SETFA) [5] it was 0%; in the experiment with Solanum nigrum (SOLNI) [6], 60%. In addition, the pest or weed control at 1000 g/ha was 40% in experiment [7]; 100% in [8]; 60% in [9]; 100% in experiment [10]; 60% in the experiment on Setaria faberi (SETFA) [11]; 80% in the experiment with Solanum nigrum (SOLNI) [12].

Turning to `COC(=O)c1nc(C2CC2)nc(NC2(/C=C/c3c(F)cccc3F)CC2)c1Cl` [Compound 4-26, 5-Chloro-2-cyclopropyl-4-{1-[2-(2,6-difluoro-phenyl)ethenyl]-cyclopropylamino}-6-methoxy-carbonylpyrimidine], the pest or weed control at 1000 g/ha was determined as 10% in [1]; 20% in experiment [2]; 0% in experiment [3]; 50% in experiment [4]; 0% in the experiment with Setaria faberi (SETFA) [5]; 20% in the experiment on Solanum nigrum (SOLNI) [6]. For the same compound, the pest or weed control at 1000 g/ha came out at 20% in experiment [7]; 100% in experiment [8]; 20% in experiment [9]; 90% in experiment [10]; 60% in the experiment with Setaria faberi (SETFA) [11]; 70% in the experiment with Solanum nigrum (SOLNI) [12].

On to `COC(=O)c1nc(C2CC2)nc(NC2(/C=C/c3ccccc3F)CC2)c1Cl` [Compound 4-27, 5-Chloro-2-cyclopropyl-4-{1-[2-(2-fluorophenyl)-ethenyl]-cyclo-propylamino}-6-methoxycarbonyl-pyrimidine], for which the pest or weed control at 1000 g/ha in [1] is 10%; in experiment [2], 40%; in experiment [3], 0%; in experiment [4], 80%; in the experiment with Setaria faberi (SETFA) [5] it was 0%; in the experiment on Solanum nigrum (SOLNI) [6], 10%. Further, the pest or weed control at 1000 g/ha in experiment [7] is 10%; in experiment [8], 100%; in experiment [9] it was 60%; in experiment [10], 100%; with Setaria faberi (SETFA) [11], 70%; with Solanum nigrum (SOLNI) [12], 80%.
